According to article PMC3961306, “Comparison of the Cancer Gene Targeting and Biochemical Selectivities of All Targeted Kinase Inhibitors Approved for Clinical Use” (PLoS ONE, 2014):

Tests used:
Assay in all cases: Kinase profiling in a biochemical assay panel (mobility shift assays and ELISA), %-inhibition at 1 μM; selectivity entropy
[1] = target: panel of more than 300 wild-type and mutant kinases (313 kinase panel) (Homo sapiens, UniProt P07949, M918T)
[2] = target: panel of more than 300 wild-type and mutant kinases (313 kinase panel) (Homo sapiens, UniProt P07949, S891A)
panel of more than 300 wild-type and mutant kinases (313 kinase panel) (Homo sapiens, UniProt P07949, S891A), sequence (P07949 29-1114 S891A): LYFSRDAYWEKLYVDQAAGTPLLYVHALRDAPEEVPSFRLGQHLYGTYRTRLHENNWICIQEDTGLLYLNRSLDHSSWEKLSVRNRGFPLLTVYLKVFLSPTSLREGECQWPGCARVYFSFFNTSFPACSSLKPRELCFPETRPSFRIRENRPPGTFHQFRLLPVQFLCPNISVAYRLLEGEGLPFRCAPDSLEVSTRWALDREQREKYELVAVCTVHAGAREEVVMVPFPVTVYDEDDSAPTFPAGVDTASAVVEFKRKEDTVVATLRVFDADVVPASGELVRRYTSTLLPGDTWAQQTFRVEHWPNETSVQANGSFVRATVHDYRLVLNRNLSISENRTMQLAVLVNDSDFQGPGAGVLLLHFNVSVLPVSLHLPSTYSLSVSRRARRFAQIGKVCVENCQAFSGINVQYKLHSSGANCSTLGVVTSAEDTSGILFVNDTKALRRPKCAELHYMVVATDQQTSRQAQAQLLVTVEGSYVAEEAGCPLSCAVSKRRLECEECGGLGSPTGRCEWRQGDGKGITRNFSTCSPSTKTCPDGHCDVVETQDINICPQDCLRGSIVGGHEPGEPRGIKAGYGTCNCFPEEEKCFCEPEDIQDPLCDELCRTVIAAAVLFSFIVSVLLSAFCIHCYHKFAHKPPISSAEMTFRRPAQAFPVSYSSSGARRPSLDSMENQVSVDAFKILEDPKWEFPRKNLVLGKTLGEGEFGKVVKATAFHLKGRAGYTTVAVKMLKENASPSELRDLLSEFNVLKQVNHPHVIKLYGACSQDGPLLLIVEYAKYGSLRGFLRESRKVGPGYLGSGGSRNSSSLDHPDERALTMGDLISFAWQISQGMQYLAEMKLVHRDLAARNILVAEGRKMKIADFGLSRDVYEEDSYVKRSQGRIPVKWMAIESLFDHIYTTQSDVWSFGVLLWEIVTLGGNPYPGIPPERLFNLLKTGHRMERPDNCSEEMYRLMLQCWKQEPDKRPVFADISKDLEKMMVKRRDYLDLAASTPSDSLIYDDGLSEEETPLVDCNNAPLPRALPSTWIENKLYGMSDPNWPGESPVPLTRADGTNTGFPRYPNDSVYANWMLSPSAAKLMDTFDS

[3] = target: panel of more than 300 wild-type and mutant kinases (313 kinase panel) (Homo sapiens, UniProt P10721, T670I)
panel of more than 300 wild-type and mutant kinases (313 kinase panel) (Homo sapiens, UniProt P10721, T670I), sequence (P10721 26-976 T670I): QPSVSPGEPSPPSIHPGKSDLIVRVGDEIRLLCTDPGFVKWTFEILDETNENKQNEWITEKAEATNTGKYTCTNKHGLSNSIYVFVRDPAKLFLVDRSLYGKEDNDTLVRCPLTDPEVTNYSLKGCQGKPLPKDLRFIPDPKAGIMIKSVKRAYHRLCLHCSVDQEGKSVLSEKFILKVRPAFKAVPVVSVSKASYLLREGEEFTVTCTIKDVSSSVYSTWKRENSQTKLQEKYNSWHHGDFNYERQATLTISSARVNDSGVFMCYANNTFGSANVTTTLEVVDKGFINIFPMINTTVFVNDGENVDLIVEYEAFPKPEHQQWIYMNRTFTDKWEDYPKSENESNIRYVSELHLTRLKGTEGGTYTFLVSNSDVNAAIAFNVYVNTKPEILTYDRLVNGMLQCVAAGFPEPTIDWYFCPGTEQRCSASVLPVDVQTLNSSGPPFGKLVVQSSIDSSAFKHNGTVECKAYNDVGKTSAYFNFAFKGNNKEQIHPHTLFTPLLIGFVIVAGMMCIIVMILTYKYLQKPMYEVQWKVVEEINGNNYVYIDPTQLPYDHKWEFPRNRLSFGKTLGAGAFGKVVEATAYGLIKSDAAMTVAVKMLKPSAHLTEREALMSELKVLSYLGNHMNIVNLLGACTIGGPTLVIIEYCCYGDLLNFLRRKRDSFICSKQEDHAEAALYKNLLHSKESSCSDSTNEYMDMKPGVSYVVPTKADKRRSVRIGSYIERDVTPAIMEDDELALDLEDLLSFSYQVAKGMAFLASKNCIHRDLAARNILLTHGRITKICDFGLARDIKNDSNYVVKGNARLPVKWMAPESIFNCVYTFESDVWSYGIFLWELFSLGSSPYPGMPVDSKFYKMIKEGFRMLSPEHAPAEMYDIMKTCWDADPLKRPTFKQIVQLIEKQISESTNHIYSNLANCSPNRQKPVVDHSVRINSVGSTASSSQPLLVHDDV

[4] = target: panel of more than 300 wild-type and mutant kinases (313 kinase panel) (Homo sapiens, UniProt P16234, T674I)
panel of more than 300 wild-type and mutant kinases (313 kinase panel) (Homo sapiens, UniProt P16234, T674I), sequence (P16234 24-1089 T674I): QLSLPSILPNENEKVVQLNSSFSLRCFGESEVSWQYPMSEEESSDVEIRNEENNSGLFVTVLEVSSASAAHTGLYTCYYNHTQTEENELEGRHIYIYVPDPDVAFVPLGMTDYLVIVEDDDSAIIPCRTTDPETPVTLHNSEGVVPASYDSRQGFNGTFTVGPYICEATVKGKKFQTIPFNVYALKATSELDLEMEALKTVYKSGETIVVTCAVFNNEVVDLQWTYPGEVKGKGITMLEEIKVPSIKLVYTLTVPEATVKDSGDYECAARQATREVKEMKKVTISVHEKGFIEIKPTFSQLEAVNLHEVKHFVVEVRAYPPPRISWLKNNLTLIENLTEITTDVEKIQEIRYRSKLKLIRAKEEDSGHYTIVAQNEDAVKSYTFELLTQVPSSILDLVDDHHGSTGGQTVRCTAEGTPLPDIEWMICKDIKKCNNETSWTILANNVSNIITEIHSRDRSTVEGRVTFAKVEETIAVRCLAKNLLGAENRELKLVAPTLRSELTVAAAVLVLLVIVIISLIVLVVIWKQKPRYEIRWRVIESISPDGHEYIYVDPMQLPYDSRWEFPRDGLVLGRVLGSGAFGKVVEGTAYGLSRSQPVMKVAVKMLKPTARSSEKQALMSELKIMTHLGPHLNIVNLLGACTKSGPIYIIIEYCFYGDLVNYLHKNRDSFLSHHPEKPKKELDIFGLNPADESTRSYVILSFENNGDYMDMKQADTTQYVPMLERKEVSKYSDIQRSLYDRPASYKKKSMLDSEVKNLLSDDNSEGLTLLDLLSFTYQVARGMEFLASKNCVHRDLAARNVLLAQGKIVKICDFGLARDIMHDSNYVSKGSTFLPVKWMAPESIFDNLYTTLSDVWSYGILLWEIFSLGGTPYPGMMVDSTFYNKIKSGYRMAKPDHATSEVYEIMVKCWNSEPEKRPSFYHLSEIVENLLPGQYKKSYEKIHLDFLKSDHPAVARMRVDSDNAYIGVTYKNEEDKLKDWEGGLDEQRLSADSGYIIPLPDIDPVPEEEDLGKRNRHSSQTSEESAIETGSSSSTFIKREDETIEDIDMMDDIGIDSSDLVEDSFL

[5] = target: T1, panel of more than 300 wild-type and mutant kinases (313 kinase panel) (Homo sapiens, UniProt P33981); details: kinase TTK; compound at 1 μM
T1 sequence (P33981 1-857): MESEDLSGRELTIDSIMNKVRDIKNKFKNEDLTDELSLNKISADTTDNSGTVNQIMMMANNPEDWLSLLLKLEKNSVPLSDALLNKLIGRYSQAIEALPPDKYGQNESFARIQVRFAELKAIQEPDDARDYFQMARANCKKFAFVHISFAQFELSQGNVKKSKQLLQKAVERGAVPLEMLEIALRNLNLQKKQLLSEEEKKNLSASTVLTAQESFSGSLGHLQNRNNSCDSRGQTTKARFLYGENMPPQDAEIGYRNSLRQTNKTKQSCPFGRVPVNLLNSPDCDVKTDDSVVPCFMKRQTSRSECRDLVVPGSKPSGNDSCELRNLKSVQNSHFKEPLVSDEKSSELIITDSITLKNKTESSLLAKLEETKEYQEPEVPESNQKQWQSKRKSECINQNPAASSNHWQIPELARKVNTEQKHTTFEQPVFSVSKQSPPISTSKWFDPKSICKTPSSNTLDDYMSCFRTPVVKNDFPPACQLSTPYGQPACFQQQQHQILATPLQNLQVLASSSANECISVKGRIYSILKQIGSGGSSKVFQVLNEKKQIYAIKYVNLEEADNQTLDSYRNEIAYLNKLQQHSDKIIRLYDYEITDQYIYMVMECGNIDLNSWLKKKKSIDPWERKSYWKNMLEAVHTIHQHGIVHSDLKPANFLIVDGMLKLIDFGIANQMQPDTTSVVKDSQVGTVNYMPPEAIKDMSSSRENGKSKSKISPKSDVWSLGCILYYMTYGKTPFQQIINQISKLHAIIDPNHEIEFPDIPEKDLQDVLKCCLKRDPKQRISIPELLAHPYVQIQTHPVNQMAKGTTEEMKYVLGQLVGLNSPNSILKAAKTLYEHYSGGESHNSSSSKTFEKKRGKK

[6] = target: panel of more than 300 wild-type and mutant kinases (313 kinase panel) (Homo sapiens, UniProt P42336); details: kinase PIK3CA/PIK3R1; 1 μM
[7] = target: panel of more than 300 wild-type and mutant kinases (313 kinase panel) (Homo sapiens, UniProt P45984); details: kinase JNK2; compound at 1 μM
panel of more than 300 wild-type and mutant kinases (313 kinase panel) (Homo sapiens, UniProt P45984), sequence (P45984 whole entry, change not shown): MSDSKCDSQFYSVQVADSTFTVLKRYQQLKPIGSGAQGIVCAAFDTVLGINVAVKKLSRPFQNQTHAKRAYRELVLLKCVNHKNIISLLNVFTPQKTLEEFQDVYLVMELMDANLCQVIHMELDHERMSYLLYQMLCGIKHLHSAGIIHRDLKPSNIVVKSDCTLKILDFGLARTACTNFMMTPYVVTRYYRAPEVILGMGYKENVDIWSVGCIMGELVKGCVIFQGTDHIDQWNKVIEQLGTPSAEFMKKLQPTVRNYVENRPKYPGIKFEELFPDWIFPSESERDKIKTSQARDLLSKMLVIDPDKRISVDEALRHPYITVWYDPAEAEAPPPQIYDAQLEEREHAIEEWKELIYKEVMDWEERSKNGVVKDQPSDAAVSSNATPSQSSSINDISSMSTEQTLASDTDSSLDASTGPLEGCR

[8] = target: panel of more than 300 wild-type and mutant kinases (313 kinase panel) (Homo sapiens, UniProt Q04912)
[9] = target: T2, panel of more than 300 wild-type and mutant kinases (313 kinase panel) (Homo sapiens, UniProt Q12866); details: kinase MER; compound at 1 μM
T2 sequence (Q12866 21-999): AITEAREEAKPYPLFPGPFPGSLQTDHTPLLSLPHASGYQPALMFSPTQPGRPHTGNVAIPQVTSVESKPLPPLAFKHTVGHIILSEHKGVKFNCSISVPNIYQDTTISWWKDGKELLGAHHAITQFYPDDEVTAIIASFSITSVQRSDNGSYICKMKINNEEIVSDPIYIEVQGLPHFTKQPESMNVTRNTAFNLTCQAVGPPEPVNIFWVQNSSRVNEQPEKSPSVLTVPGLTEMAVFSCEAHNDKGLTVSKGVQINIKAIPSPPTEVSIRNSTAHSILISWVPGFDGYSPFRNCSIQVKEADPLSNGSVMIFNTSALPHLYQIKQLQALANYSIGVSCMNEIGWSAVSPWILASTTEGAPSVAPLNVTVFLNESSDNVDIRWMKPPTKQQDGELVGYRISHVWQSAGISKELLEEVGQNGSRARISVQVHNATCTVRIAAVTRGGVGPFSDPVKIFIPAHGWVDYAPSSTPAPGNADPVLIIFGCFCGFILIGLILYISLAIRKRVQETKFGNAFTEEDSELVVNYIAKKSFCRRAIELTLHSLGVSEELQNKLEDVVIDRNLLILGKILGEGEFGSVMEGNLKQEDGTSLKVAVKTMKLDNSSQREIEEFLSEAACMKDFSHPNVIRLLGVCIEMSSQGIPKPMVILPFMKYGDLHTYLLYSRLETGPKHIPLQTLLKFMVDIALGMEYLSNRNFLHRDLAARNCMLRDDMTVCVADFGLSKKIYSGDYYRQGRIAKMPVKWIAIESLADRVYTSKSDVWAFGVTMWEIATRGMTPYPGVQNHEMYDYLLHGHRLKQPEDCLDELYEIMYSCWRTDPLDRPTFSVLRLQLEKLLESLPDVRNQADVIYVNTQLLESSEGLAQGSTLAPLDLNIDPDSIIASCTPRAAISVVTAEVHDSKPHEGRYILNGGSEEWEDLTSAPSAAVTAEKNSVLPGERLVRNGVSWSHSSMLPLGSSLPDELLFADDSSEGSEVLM

[10] = kinase KIT(T670I), compound at 1 μM

panel of more than 300 wild-type and mutant kinases (313 kinase panel) (Homo sapiens, UniProt P07949, M918T), sequence (P07949 29-1114 M918T): as the sequence (P07949 29-1114 S891A) above, with A863S, M890T counted along it

SMILES	%-inhibition of RET(M918T) ([1]; 1 µM) [%]	%-inhibition of RET(S891A) ([2]; 1 µM) [%]	%-inhibition of KIT(T670I) ([3]; 1 µM) [%]	%-inhibition of PDGFRα(T674I) ([4]; 1 µM) [%]	%-inhibition of TTK [5] [%]	%-inhibition of PIK3CA/PIK3R1 [6] [%]	%-inhibition of JNK2 [7] [%]	%-inhibition of RON ([8]; 1 µM) [%]	%-inhibition of MER [9] [%]	%-inhibition of KIT(T670I) [3, 10] [%]	%-inhibition of PDGFRα(T674I) ([4]; kinase PDGFRα(T674I), 1 μM) [%]	%-inhibition of RON ([8]; kinase RON, 1 μM) [%]	%-inhibition of RET(M918T) ([1]; kinase RET(M918T), 1 μM) [%]	%-inhibition of RET(S891A) ([2]; kinase RET(S891A), 1 μM) [%]
Cc1cn(-c2cc(NC(=O)c3ccc(C)c(Nc4nccc(-c5cccnc5)n4)c3)cc(C(F)(F)F)c2)cn1 [nilotinib]	0.118	81	18	45	-8	16	9	-13	-46					
CNC(=O)c1cc(Oc2ccc(NC(=O)Nc3ccc(Cl)c(C(F)(F)F)c3)c(F)c2)ccn1 [regorafenib]	102	102			0.186	41	57		29	101	92	3.5		
CO[C@H]1C[C@@H]2CC[C@@H](C)[C@@](O)(O2)C(=O)C(=O)N2CCCC[C@H]2C(=O)O[C@H]([C@H](C)C[C@@H]2CC[C@@H](OC(=O)C(C)(CO)CO)[C@H](OC)C2)CC(=O)[C@H](C)/C=C(\C)[C@@H](O)[C@@H](OC)C(=O)[C@H](C)C[C@H](C)/C=C/C=C/C=C/1C [temsirolimus]					-22	22	-4.61		-3.24	-4.27	-2.73	-3	-3.41	-2.19
CC(=O)Nc1cccc(-n2c(=O)n(C3CC3)c(=O)c3c(Nc4ccc(I)cc4F)n(C)c(=O)c(C)c32)c1 [trametinib]					59	0.26	-4.73		-6.62	-3	-0.248	-6.44	-1.41	-1.24
CCCS(=O)(=O)Nc1ccc(F)c(C(=O)c2c[nH]c3ncc(-c4ccc(Cl)cc4)cc23)c1F [vemurafenib]					-14	24	-0.0632		6	5.29	1.49	-2	11	60
